This note sets out measurements from article PMC7582544, “Bioactive Ent-Kaurane Diterpenes Oridonin and Irudonin Prevent Cancer Cells Migration by Interacting with the Actin Cytoskeleton Controller Ezrin” (International Journal of Molecular Sciences, 2020).

Assay [1] deals with T1, Ezrin (Homo sapiens, UniProt P15311).
T1 construct: gene EZR
Put plainly: CETSA dose response at […] °C in MKN28 cells (EC50 […] in A375), Tm shift […] to […] °C; DARTS with MS and Western blot. The assay is classed as cell-based.

The test system of the next assay is C2C12. Put plainly: cells. Also on record: species or system MKN28, A375; PrestoBlue cell proliferation/viability assay, absorbance 570 nm, 24 h. Conditions: Mus musculus, 24 h, non-cancer myoblasts. The method, then: Cell proliferation rate was evaluated measuring mitochondrial metabolic activity through the use of PrestoBlueTM (PB) (Cat. N. A13262, Invitrogen), employed according to the manufacturer’s protocol. Cells were plated onto 96-well plates (8000 cells/well), treated with increasing concentrations (10–60 μM) of Ori or Iru for 24 h and then incubated with PB reagent at 10% final concentration for 1 h. The absorbance was monitored at 570 nm with a reference wavelength set a 600 nm and using a microplate reader (Multiskan Go, Thermo Scientific, Waltham, MA, USA). Cell viability was expressed as a percentage relative to the un-treated cells cultured in DMEM with 0.1% DMSO and set to 100%. The dose compounds reducing cell number by 50% (IC50 values) were calculated using the respective dose–response curves according to the manufacturer’s protocol. IC50 values were used for the subsequent proteomic experiments. Instead, the non-toxic concentration of 10 μM was used for the functional assays. […] To that aim, we first evaluated the cytotoxic potential of both diterpenes on the C2C12 cells; therefore, we exposed for 24 h C2C12 myoblasts to increasing concentrations (10–60 μM) of Ori or of Iru, and, subsequently, we performed cell proliferation assay (Figure 1).

Another assay concerns MKN28. Nature of the assay: cells. Further details: species or system C2C12, A375; PrestoBlue cell proliferation/viability assay, absorbance 570 nm, 24 h. Particulars: Homo sapiens, MKN-28, 24 h.
The subject of a further assay is A375. Nature of the assay: cells. Particulars: Homo sapiens, A-375, 24 h. Also on record: species or system C2C12, MKN28; PrestoBlue cell proliferation/viability assay, absorbance 570 nm, 24 h.
Assay [2] has as its target T1, Ezrin. Put plainly: CETSA dose response at […] °C in A375 cells (EC50 […] in MKN28), Tm shift […] to […] °C; DARTS with MS and Western blot. The assay is classed as cell-based.

Like-named read-outs stand apart in the source and are kept apart here.

T1 sequence (P15311 whole entry): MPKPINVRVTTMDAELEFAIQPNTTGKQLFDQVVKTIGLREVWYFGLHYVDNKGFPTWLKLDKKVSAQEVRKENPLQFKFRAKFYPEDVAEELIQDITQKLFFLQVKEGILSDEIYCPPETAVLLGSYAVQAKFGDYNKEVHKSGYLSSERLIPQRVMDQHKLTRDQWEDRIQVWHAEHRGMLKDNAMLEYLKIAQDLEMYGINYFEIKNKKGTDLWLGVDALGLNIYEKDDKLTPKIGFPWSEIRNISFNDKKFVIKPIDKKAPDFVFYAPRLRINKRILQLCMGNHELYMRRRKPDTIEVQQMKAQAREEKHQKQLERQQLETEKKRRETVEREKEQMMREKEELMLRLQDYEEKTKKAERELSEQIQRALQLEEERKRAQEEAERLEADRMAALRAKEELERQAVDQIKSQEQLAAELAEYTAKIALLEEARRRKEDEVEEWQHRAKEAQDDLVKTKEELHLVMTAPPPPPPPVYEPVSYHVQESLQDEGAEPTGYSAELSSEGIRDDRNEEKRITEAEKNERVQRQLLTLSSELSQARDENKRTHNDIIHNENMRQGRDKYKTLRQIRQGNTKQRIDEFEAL

Regarding `C=C1C(=O)[C@@]23C(CC[C@@H]1[C@H]2O)[C@]12CCCC(C)(C)C1[C@H](O)[C@@]3(O)O[C@H]2O` (some centres unmarked) [Iru], on Ezrin [1], the EC50 was 13 µM. Further, the IC50 is 50 µM with C2C12 (read-out: Iru IC50), 25 µM in the assay on MKN28 (read-out: Iru IC50) and 35 µM in the assay on A375 (read-out: Iru IC50).
On to `C=C1C(=O)[C@]23[C@H](O)[C@H]1CC[C@H]2[C@@]12CO[C@]3(O)[C@@H](O)[C@@H]1C(C)(C)CC[C@@H]2O` [Ori, (1S,2S,5S,8R,9S,10S,11R,15S,18R)-9,10,15,18-tetrahydroxy-12,12-dimethyl-6-methylidene-17-oxapentacyclo (7.6.2.15,8.01,11.02,8) octadecan-7-one], for which the figures for the concentration for half-maximal inhibition (IC50) in the assay on C2C12 (read-out: Ori IC50), with MKN28 (read-out: Ori IC50) and in the assay with A375 (read-out: Ori IC50) were 30 µM, 20 µM and 25 µM, respectively. Moreover, at Ezrin [2], the EC50 turned out to be 19 µM.
